Test results as given in publication PMC5374982 (Biochemistry, 2016).
Where two headings read alike, the source gives them in different places.

Assays:
Assay in all cases: 1H–[…] HSQC NMR chemical shift titration
Type in all cases: binding
xylanase B2 (XlnB2) = xylanase B2 (XlnB2) (Streptomyces lividans, UniProt P26515)
XlnB2-E87A [1] = molecular target: T1, XlnB2-E87A (Streptomyces lividans, UniProt P26515, E128A)
XlnB2-E87A [2] = molecular target: T1, XlnB2-E87A; remark: listed apart in the source

OC1OC[C@@H](O[C@@H]2OC[C@@H](O)[C@H](O)[C@H]2O)[C@H](O)[C@H]1O (stereo partly drawn) [X2, xylobiose]
Kd (xylanase B2 (XlnB2)): 7.07 mM
Kd (XlnB2-E87A [1]): 8.71 mM

OC1OC[C@@H](O[C@@H]2OC[C@@H](O[C@@H]3OC[C@@H](O[C@@H]4OC[C@@H](O[C@@H]5OC[C@@H](O)[C@H](O)[C@H]5O)[C@H](O)[C@H]4O)[C@H](O)[C@H]3O)[C@H](O)[C@H]2O)[C@H](O)[C@H]1O (stereo partly drawn) [X5, xylopentaose]
Kd (XlnB2-E87A [2]): 7.93 mM
